Measured values taken from ChEMBL document CHEMBL5625228, “Design, synthesis, and bioactivity evaluation of novel amide/sulfonamide derivatives as potential anti-inflammatory agents against acute lung injury and ulcerative colitis” (Eur J Med Chem, 2023).
Activity calls are given as the source filed them. No cut-off for these calls is given here.

How the values were obtained:
Mus musculus [1] = test: Antiinflammatory activity against LPS-induced acute lung injury C57BL/6 mouse model assessed as suppression of TNF-alpha level in serum at 20 mg/kg, IG preincubated with compound for 30 mins followed by LPS-induction and measured after 6 hrs by ELISA analysis; type: functional, organism-based; conditions: time 390.0 min
J774.A1 [2] = test: Antiinflammatory activity against mouse J774.A1 cells assessed as inhibition of LPS-induced IL-6 production pretreated with compound for 30 mins followed by LPS induction and measured after 24 hrs by ELISA analysis; type: functional; conditions: time 1470 min; 24.5 h
Mus musculus [3] = test: Antiinflammatory activity against DSS-induced acute colitis C57BL/6 mouse model assessed as increase in colon length at 5 mg/kg, po pretreated with DSS for 7 days followed by compound addition for every day for 10 days; type: functional, organism-based; conditions: time 10.0 day
J774.A1 [4] = test: Antiinflammatory activity against LPS-induced mouse J774.A1 cells assessed as increase in IkappaB-alpha level at 20 uM incubated for 2 hrs by Western blot analysis; type: functional, cell-based
Mus musculus [5] = test: Antiinflammatory activity against DSS-induced acute colitis C57BL/6 mouse model assessed as attenuation of white pulp at 5 mg/kg, po pretreated with DSS for 7 days followed by compound addition for every day for 10 days by H and E staining based analysis; type: functional, organism-based; conditions: time 10.0 day
[6] = MRT (0 to t) in Sprague-Dawley rat at 1 mg/kg, iv measured upto 24 hrs by LC-MS analysis; type: ADME, organism-based; conditions: in vivo
J774.A1 [7] = test: Antiinflammatory activity against LPS-induced mouse J774.A1 cells assessed as downregulation of p65 level at 20 uM incubated for 2 hrs by Western blot analysis; type: functional, cell-based
[8] = MRT (0 to t) in Sprague-Dawley rat at 10 mg/kg, po measured upto 24 hrs by LC-MS analysis; type: ADME, organism-based; conditions: in vivo
[9] = Cmax in Sprague-Dawley rat at 10 mg/kg, po measured upto 24 hrs by LC-MS analysis; type: ADME, organism-based; conditions: in vivo
Mus musculus [10] = test: Antiinflammatory activity against LPS-induced acute lung injury C57BL/6 mouse model assessed as suppression of TNF-alpha level in BALF at 20 mg/kg, IG preincubated with compound for 30 mins followed by LPS-induction and measured after 6 hrs by ELISA analysis; type: functional, organism-based; conditions: time 390.0 min
Mus musculus [11] = test: Antiinflammatory activity against DSS-induced acute colitis C57BL/6 mouse model assessed as reduction in inflammatory infiltration in colon at 5 mg/kg, po pretreated with DSS for 7 days followed by compound addition for every day for 10 days by H and E staining based analysis; type: functional, organism-based; conditions: time 10.0 day

MRT last at 24 h [6]: 1.1 h | MRT last at 24 h [8]: 7.2 h | Cmax [9]: 168 ng/mL
Compound: O=[N+]([O-])c1ccc(N2CCN(c3ccc(S(=O)(=O)NCc4ccccn4)cc3[N+](=O)[O-])CC2)cc1
Activity (Mus musculus [1]): Active | inhibition (INH) (J774.A1 [2]): 85.92% | Activity (Mus musculus [3]): Active | Activity (J774.A1 [4]): Active | Activity (Mus musculus [5]): Active | Activity (J774.A1 [7]): Active | Activity (Mus musculus [10]): Active | Activity (Mus musculus [11]): Active
